Experimental data as given in US9359451B2, “Methods and compositions for treating trauma-hemorrhage using estrogen and derivatives thereof” (THE UAB RESEARCH FOUNDATION, priority 2012, dated 2016).
“Also recorded” adds a separate entry of the source.

How the values were obtained:
Format in all cases: in vivo, mouse
[1] = system: spinal cord tissue; experiment: Spinal cord injury (clip compression): histology and Luxol fast blue; settings: 24 h after SCI; for histological alterations of the spinal cord tissue (H&E, histological score): 17β-estradiol 300 μg/kg sc 1 h before, 3 h and 6 h after SCI, ICI 182,780: 500 μg/kg sc 1 h before 17β-estradiol; for myelin structure (Luxol fast blue): ICI 182,780: co-administered with 17β-estradiol
Description: Mice were anaesthetized using chloral hydrate (400 mg/kg body weight) (Genovese 2006). A longitudinal incision was made on the midline of the back, exposing the paravertebral muscles. These muscles were dissected away exposing T5-T8 vertebrae. The spinal cord was exposed via a four-level T6-T7 laminectomy and SCI was produced by extradural compression using an aneurysm clip with a closing force of 24 g. Following surgery, 1 ml of saline was administered subcutaneously in order to replace the blood volume lost during surgery. During the surgery and recovery from anesthesia, the mice were placed on a warm heating pad and covered with a warm towel. […] Food and water were provided to the mice ad libitum. During this time period, the animals' bladders were manually voided twice a day until the mice were able to regain normal bladder function. In all injured groups, the spinal cord was compressed for 1 min. Sham-injured animals were only subjected to laminectomy. […] In the experiments regarding the motor score, the animals from all the experimental groups were observed and treated daily for 9 days after SCI. At different time points (see FIG. 30), the mice (n=10 from each group for each of the 3 time points) were sacrificed in order to evaluate the various parameters as described below. Spinal cord biopsies were taken at 24 hours following trauma. Tissue segments containing the lesion (1 cm on each side of the lesion) were paraffin embedded and cut into 5-μm-thick sections. Tissue sections were deparaffinized with xylene, stained with Haematoxylin/Eosin (H&E) and Luxol Fast Blue staining (used to assess demyelination) and studied using light microscopy (Dialux 22 Leitz). The segments of each spinal cord were evaluated by an experienced histopathologist (RO). Damaged neurons were counted and the histopathologic changes of the gray matter were scored on a 6-point […] 2000): 0, no lesion observed, 1, gray matter contained 1 to 5 eosinophilic neurons; 2, gray matter contained 5 to 10 eosinophilic neurons; 3, gray matter contained more than 10 eosinophilic neurons; 4, small infarction (less than one third of the gray matter area); 5, moderate infarction; (one third to one half of the gray matter area); 6, large infarction (more than half of the gray matter area). The scores from all the sections from each spinal cord were averaged to give a final score for an individual mice. All the histological studies were performed in a blinded fashion.

[2] = system: iNOS, nitrotyrosine, COX-2, Bax and Bcl-2; experiment: Spinal cord injury: immunohistochemical localization of nitrotyrosine, iNOS, COX-2, Bax and Bcl-2; settings: 24 h after SCI; ICI 182,780: co-administered with 17β-estradiol
Description: Mice were anaesthetized using chloral hydrate (400 mg/kg body weight) (Genovese 2006). A longitudinal incision was made on the midline of the back, exposing the paravertebral muscles. These muscles were dissected away exposing T5-T8 vertebrae. The spinal cord was exposed via a four-level T6-T7 laminectomy and SCI was produced by extradural compression using an aneurysm clip with a closing force of 24 g. Following surgery, 1 ml of saline was administered subcutaneously in order to replace the blood volume lost during surgery. During the surgery and recovery from anesthesia, the mice were placed on a warm heating pad and covered with a warm towel. […] Food and water were provided to the mice ad libitum. During this time period, the animals' bladders were manually voided twice a day until the mice were able to regain normal bladder function. In all injured groups, the spinal cord was compressed for 1 min. Sham-injured animals were only subjected to laminectomy. Mice were randomly allocated into the following groups: (i) saline+SCI group, mice received saline subcutaneously and were subjected to SCI (n=40); […] (v) saline+sham group, mice were subjected to the surgical procedures as above group except that the aneurysm clip was not applied (n=40); […] In the experiments regarding the motor score, the animals from all the experimental groups were observed and treated daily for 9 days after SCI. At different time points (see FIG. 30), the mice (n=10 from each group for each of the 3 time points) were sacrificed in order to evaluate the various parameters as described below. […] After deparaffinization, endogenous peroxidase was quenched with 0.3% (v/v) hydrogen peroxide in 60% (v/v) methanol for 30 min. […] Non-specific adsorption was minimized by incubating the section in 2% (v/v) normal goat serum in PBS for 20 min. Endogenous biotin or avidin binding sites were blocked by sequential incubation for 15 min with biotin and avidin (DBA), respectively. […] Sections were washed with PBS, and incubated with secondary antibody. Specific labeling was detected with a biotin-conjugated goat anti-rabbit IgG and avidin-biotin peroxidase complex (DBA) and counterstained with nuclear fast red. To verify the binding specificity for nitrotyrosine, iNOS, COX-2, Bax, and Bcl-2, some sections were also incubated with only the primary antibody (no secondary) or with only the secondary antibody (no primary). […] Immunocytochemistry photographs (n=5) were assessed by densitometry as previously described (Shea 1994) by using Imaging Densitometer (AxioVision, Zeiss, Milan, Italy) and a computer program.

[3] = system: myeloperoxidase (MPO); experiment: Spinal cord injury: neutrophil infiltration, MPO activity and MPO staining; settings: 24 h after SCI; ICI 182,780: co-administered with 17β-estradiol
Description: Mice were anaesthetized using chloral hydrate (400 mg/kg body weight) (Genovese 2006). A longitudinal incision was made on the midline of the back, exposing the paravertebral muscles. These muscles were dissected away exposing T5-T8 vertebrae. The spinal cord was exposed via a four-level T6-T7 laminectomy and SCI was produced by extradural compression using an aneurysm clip with a closing force of 24 g. Following surgery, 1 ml of saline was administered subcutaneously in order to replace the blood volume lost during surgery. During the surgery and recovery from anesthesia, the mice were placed on a warm heating pad and covered with a warm towel. […] Food and water were provided to the mice ad libitum. During this time period, the animals' bladders were manually voided twice a day until the mice were able to regain normal bladder function. In all injured groups, the spinal cord was compressed for 1 min. Sham-injured animals were only subjected to laminectomy. […] In the experiments regarding the motor score, the animals from all the experimental groups were observed and treated daily for 9 days after SCI. At different time points (see FIG. 30), the mice (n=10 from each group for each of the 3 time points) were sacrificed in order to evaluate the various parameters as described below. […] After deparaffinization, endogenous peroxidase was quenched with 0.3% (v/v) hydrogen peroxide in 60% (v/v) methanol for 30 min. […] Non-specific adsorption was minimized by incubating the section in 2% (v/v) normal goat serum in PBS for 20 min. Endogenous biotin or avidin binding sites were blocked by sequential incubation for 15 min with biotin and avidin (DBA), respectively. […] Sections were washed with PBS, and incubated with secondary antibody. Specific labeling was detected with a biotin-conjugated goat anti-rabbit IgG and avidin-biotin peroxidase complex (DBA) and counterstained with nuclear fast red. To verify the binding specificity for nitrotyrosine, iNOS, COX-2, Bax, and Bcl-2, some sections were also incubated with only the primary antibody (no secondary) or with only the secondary antibody (no primary). […] Immunocytochemistry photographs (n=5) were assessed by densitometry as previously described (Shea 1994) by using Imaging Densitometer (AxioVision, Zeiss, Milan, Italy) and a computer program. Myeloperoxidase (MPO) activity, an indicator of PMN accumulation, was determined as previously described (Mullane 1985) 24 h after SCI. […] The rate of change in absorbance was measured spectrophotometrically at 650 nm. MPO activity was defined as the quantity of enzyme degrading 1 μmol of peroxide per minute at 37° C. and was expressed in milliunits/g of wet tissue.

Row | Structure (SMILES) | histological alterations of the spinal cord tissue (H&E, histological score) [1] | myelin structure (Luxol fast blue) [1] | immunohistochemical expression of Bax [2] | immunohistochemical expression of Bcl-2 [2] | immunostaining for COX-2 [2] | immunostaining for iNOS [2] | immunostaining for nitrotyrosine [2] | MPO activity in spinal cord [3] | staining for MPO [3]
1 | C[C@]12CC[C@@H]3c4ccc(O)cc4CC[C@H]3[C@@H]1CC[C@@H]2O [17β-estradiol] | significant protection against the SCI-induced histological alteration; also recorded: significant protection from the SCI was observed | myelin degradation was attenuated | reduced the degree of positive staining for Bax; also recorded: significantly inhibited the SCI-induced increase in Bax expression | attenuated the loss of positive staining for Bcl-2; also recorded: significantly prevents the loss of Bcl-2 expression | reduced the degree of positive staining for COX-2; also recorded: marked reduction in the immunostaining for COX-2 | reduced the degree of positive staining for iNOS; also recorded: marked reduction in the immunostaining | reduced the degree of positive staining for nitrotyrosine; also recorded: marked reduction in the immunostaining | significantly attenuated; also recorded: significantly reduced the SCI-induced increase in MPO activity | visibly and significantly reduced
2 | C[C@]12CC[C@@H]3c4ccc(O)cc4C[C@@H](CCCCCCCCC[S+]([O-])CCCC(F)(F)C(F)(F)F)[C@H]3[C@@H]1CC[C@@H]2O (stereo partly drawn) [ICI 182,780] | significantly blocked the effect of the 17β-estradiol | significantly blocked the effect of the 17β-estradiol | significantly blocked the effect of the 17β-estradiol | significantly blocked the effect of the 17β-estradiol | significantly blocked the effect of the 17β-estradiol | significantly blocked the effect of the 17β-estradiol | significantly blocked the effect of the 17β-estradiol | significantly blocked the effect of the 17β-estradiol | significantly blocked the effect of the 17β-estradiol
